Reference: PubChem BioAssay AID248 (DTP/NCI, 2004)
Values joined by “and” are separate entries in the source; they are usually repeats but may differ in a detail not shown here. Equal values may be shown once. Inconclusive results and toxic doses are left out. Cut-off read from the data, not from the text of the source: active = T/C of 150% or more; inactive = T/C below 125%.

System: L1210 leukemia ip in BDF1 mice, survival T/C
Test: NCI In Vivo Anticancer Drug Screen. Data for tumor model L1210 Leukemia (intraperitoneal) in B6D2F1 (BDF1) mice
Conditions: endpoint: mean survival time, higher = longer survival
Summary of the method: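 Ratio derived from survival: compound-dosed mice over vehicle-dosed mice, all bearing a transplantable tumor.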

[1] = dose: 100.0 mg/kg/injection, schedule: Q01DX009 (ip), vehicle: Klucel (hydroxypropylcellulose) (HPC)
[2] = dose: 200.0 mg/kg/injection, schedule: Q01DX009 (ip), vehicle: Klucel (hydroxypropylcellulose) (HPC)
[3] = dose: 200.0 mg/kg/injection, schedule: Q04DX003 (ip), vehicle: Klucel (hydroxypropylcellulose) (HPC)
[4] = dose: 400.0 mg/kg/injection, schedule: Q01DX009 (ip), vehicle: Klucel (hydroxypropylcellulose) (HPC)
[5] = dose: 400.0 mg/kg/injection, schedule: Q04DX003 (ip), vehicle: Klucel (hydroxypropylcellulose) (HPC)
[6] = dose: 100.0 mg/kg/injection, schedule: Q04DX003 (ip), vehicle: saline with Tween-80
[7] = dose: 200.0 mg/kg/injection, schedule: Q04DX003 (ip), vehicle: saline with Tween-80
[8] = dose: 400.0 mg/kg/injection, schedule: Q04DX003 (ip), vehicle: saline with Tween-80
[9] = dose: 100.0 mg/kg/injection, schedule: Q01DX001 (ip), vehicle: saline with Tween-80
[10] = dose: 200.0 mg/kg/injection, schedule: Q01DX001 (ip), vehicle: saline with Tween-80
[11] = dose: 400.0 mg/kg/injection, schedule: Q01DX001 (ip), vehicle: saline with Tween-80
[12] = dose: 100.0 mg/kg/injection, schedule: Q01DX001 (ip), vehicle: saline
[13] = dose: 200.0 mg/kg/injection, schedule: Q01DX001 (ip), vehicle: saline
[14] = dose: 400.0 mg/kg/injection, schedule: Q01DX001 (ip), vehicle: saline
[15] = dose: 100.0 mg/kg/injection, schedule: Q01DX009 (ip), vehicle: saline with Tween-80
[16] = dose: 100.0 mg/kg/injection, schedule: Q04DX002 (ip), vehicle: Klucel (hydroxypropylcellulose) (HPC)
[17] = dose: 200.0 mg/kg/injection, schedule: Q04DX002 (ip), vehicle: Klucel (hydroxypropylcellulose) (HPC)
[18] = dose: 400.0 mg/kg/injection, schedule: Q04DX002 (ip), vehicle: Klucel (hydroxypropylcellulose) (HPC)
[19] = dose: 100.0 mg/kg/injection, schedule: Q01DX001 (ip), vehicle: carboxymethylcellulose (CMC)
[20] = dose: 200.0 mg/kg/injection, schedule: Q01DX001 (ip), vehicle: carboxymethylcellulose (CMC)
[21] = dose: 400.0 mg/kg/injection, schedule: Q01DX001 (ip), vehicle: carboxymethylcellulose (CMC)

Measured: T/C

Nc1ccc2nc(NCCO)c3ccccc3c2c1
inactive: [1] 107 % of control | dose: 100.0 mg/kg/injection, schedule: Q04DX003 (ip), vehicle: Klucel (hydroxypropylcellulose) (HPC) 104 % of control | [2] 114 % of control | [3] 104 % of control | [4] 88 % of control | [5] 104 % of control

Nc1ccc2[nH]ncc2c1
inactive: [6] 102 % of control | [7] 102 % of control | [8] 110 % of control

COc1cccc(/C(C#N)=C\O)c1
inactive: dose: 100.0 mg/kg/injection, schedule: Q04DX002 (ip), vehicle: saline with Tween-80 104 % of control | dose: 200.0 mg/kg/injection, schedule: Q04DX002 (ip), vehicle: saline with Tween-80 96 % of control

Cc1ccc(C)c(C[P+](c2ccccc2)(c2ccccc2)c2ccccc2)c1
inactive: dose: 15.0 mg/kg/injection, schedule: Q01DX001 (ip), vehicle: saline 104 % of control

C1CC2OC2CCC2OC12 (stereo not drawn)
inactive: dose: 100.0 mg/kg/injection, schedule: Q01DX001 (ip), vehicle: other 95 % of control | dose: 200.0 mg/kg/injection, schedule: Q01DX001 (ip), vehicle: other 106 % of control | dose: 400.0 mg/kg/injection, schedule: Q01DX001 (ip), vehicle: other 101 % of control

CC1CCC2(C(=O)OC3OC(COC4OC(CO)C(OC5OC(C)C(O)C(O)C5O)C(O)C4O)C(O)C(O)C3O)CCC3(C)C(=CCC4C5(C)CC(O)C(O)C(C)(CO)C5CCC43C)C2C1C (stereo not drawn)
inactive: [9] 98 % of control | [10] 98 % of control | [11] 97 % of control

Ic1ccccc1CNCCc1ccccc1
inactive: dose: 75.0 mg/kg/injection, schedule: Q01DX001 (ip), vehicle: other 93 % of control | dose: 150.0 mg/kg/injection, schedule: Q01DX001 (ip), vehicle: other 96 % of control | dose: 300.0 mg/kg/injection, schedule: Q01DX001 (ip), vehicle: other 96 % of control

FC(F)(F)c1cccc(B2OCCNCCO2)c1
inactive: [6] 106 % of control | [7] 95 % of control

CCCCCCCCCCC(N)C(=O)O (stereo not drawn)
inactive: dose: 12.5 mg/kg/injection, schedule: Q04DX002 (ip), vehicle: Klucel (hydroxypropylcellulose) (HPC) 104 % of control | dose: 25.0 mg/kg/injection, schedule: Q04DX002 (ip), vehicle: Klucel (hydroxypropylcellulose) (HPC) 91 % of control | dose: 50.0 mg/kg/injection, schedule: Q04DX002 (ip), vehicle: Klucel (hydroxypropylcellulose) (HPC) 88 % of control

COc1ccc(CCN=C2C3CC4CC(C3)CC2C4)cc1OC
inactive: [12] 98 % of control | [13] 98 % of control | [14] 103 % of control

COc1ccc(NC(=O)Oc2ccc(-c3ccccc3)cc2Cl)c(OC)c1
inactive: [1] 97 % of control | [2] 101 % of control | [4] 92 % of control

COC(=O)/C=C1\C(C(=O)OC)=Cc2ccccc2N1C
inactive: [15] 97 % of control | [6] 98 % of control | dose: 200.0 mg/kg/injection, schedule: Q01DX009 (ip), vehicle: saline with Tween-80 91 % of control | [7] 98 % of control | dose: 400.0 mg/kg/injection, schedule: Q01DX009 (ip), vehicle: saline with Tween-80 94 % of control | [8] 96 % of control

COc1ccc(C(O)c2cc3ccccc3n2S(=O)(=O)c2ccccc2)cc1 (stereo not drawn)
inactive: [16] 95 % of control | [17] 106 % of control | [18] 98 % of control

CC(=O)OI(OC(C)=O)c1ccccc1
inactive: [1] 98 % of control | [2] 102 % of control

O=C1c2ccccc2-c2oc(=O)c3ccccc3c21
inactive: dose: 50.0 mg/kg/injection, schedule: Q01DX001 (ip), vehicle: carboxymethylcellulose (CMC) 96 % of control | [19] 96 % of control | [20] 94 % of control | [21] 96 % of control

O=C(CCl)c1cccnc1C(=O)O
inactive: dose: 25.0 mg/kg/injection, schedule: Q01DX009 (ip), vehicle: saline sonified 94 % of control | dose: 50.0 mg/kg/injection, schedule: Q01DX009 (ip), vehicle: saline sonified 91 % of control | dose: 100.0 mg/kg/injection, schedule: Q01DX009 (ip), vehicle: saline sonified 89 % of control

O=C1c2ccccc2CCCC1Br (stereo not drawn)
inactive: [19] 95 % of control | [20] 87 % of control | [21] 92 % of control

O=C(O)c1c(Cl)cccc1Cl
inactive: dose: 25.0 mg/kg/injection, schedule: Q01DX009 (ip), vehicle: saline with Tween-80 92 % of control | dose: 50.0 mg/kg/injection, schedule: Q01DX009 (ip), vehicle: saline with Tween-80 93 % of control | [15] 93 % of control and 87 % of control | [6] 98 % of control | [7] 95 % of control | [8] 95 % of control

O=C(Nc1ccc([N+](=O)[O-])cn1)Nc1cc([N+](=O)[O-])ccc1F
inactive: dose: 100.0 mg/kg/injection, schedule: Q01DX001 (ip), vehicle: Klucel (hydroxypropylcellulose) (HPC) 93 % of control | [1] 94 % of control and 89 % of control | [16] 95 % of control and 102 % of control | dose: 200.0 mg/kg/injection, schedule: Q01DX001 (ip), vehicle: Klucel (hydroxypropylcellulose) (HPC) 100 % of control | [2] 94 % of control and 89 % of control | [17] 92 % of control and 102 % of control | [3] 87 % of control | dose: 400.0 mg/kg/injection, schedule: Q01DX001 (ip), vehicle: Klucel (hydroxypropylcellulose) (HPC) 94 % of control | [4] 100 % of control | [18] 94 % of control and 95 % of control | [5] 92 % of control

O=c1oc(-c2ccccc2)c(-c2ccccc2)o1
inactive: dose: 100.0 mg/kg/injection, schedule: Q04DX002 (ip), vehicle: other 100 % of control | dose: 200.0 mg/kg/injection, schedule: Q04DX002 (ip), vehicle: other 103 % of control | dose: 400.0 mg/kg/injection, schedule: Q04DX002 (ip), vehicle: other 96 % of control

COc1ccc(NC(=O)Nc2cc(Cl)ccc2Cl)cc1
inactive: [6] 90 % of control | [7] 92 % of control | [8] 92 % of control

CC(N)(COC(=O)c1ccccc1)C(=O)O (stereo not drawn)
inactive: dose: 100.0 mg/kg/injection, schedule: Q04DX003 (ip), vehicle: saline 107 % of control | dose: 200.0 mg/kg/injection, schedule: Q04DX003 (ip), vehicle: saline 96 % of control | dose: 400.0 mg/kg/injection, schedule: Q04DX003 (ip), vehicle: saline 98 % of control

Nc1c(Br)cccc1C(=O)O
inactive: [12] 104 % of control | [13] 102 % of control | [14] 101 % of control

CC(C)=CCC/C(C)=C/CN1C(=O)CCCC1=O
inactive: [9] 104 % of control | dose: 150.0 mg/kg/injection, schedule: Q04DX003 (ip), vehicle: saline with Tween-80 94 % of control | [10] 97 % of control | dose: 300.0 mg/kg/injection, schedule: Q04DX003 (ip), vehicle: saline with Tween-80 94 % of control | [11] 93 % of control | dose: 600.0 mg/kg/injection, schedule: Q04DX003 (ip), vehicle: saline with Tween-80 90 % of control
